Results as given in publication PMC7226045, “Ensartinib (X-396) Effectively Modulates Pharmacokinetic Resistance Mediated by ABCB1 and ABCG2 Drug Efflux Transporters and CYP3A4 Biotransformation Enzyme” (Cancers, 2020).
Where two headings read alike, the source gives them in different places.

Key:
[1] = test system: HepG2-CYP3A4 cells; assay: Docetaxel combination assay (MTT), HepG2-CYP3A4; assay type: cell-based, human; settings: 1 µM docetaxel
Experimental: (§1) MTT proliferation assay was performed as described previously.
(§2) Cell viability was measured after a 48 h incubation using the MTT method as described above. […] Sensitization effects of < 0%, 0%, and >0% indicate antagonism, additivity, and synergism, respectively.

[2] = test system: HepG2-EV cells; assay: Docetaxel combination assay (MTT), HepG2-EV; assay type: cell-based, human; settings: 1 µM docetaxel, <0% antagonism, =0% additivity, >0% synergism
Experimental: as §1, §2

[3] = test system: HL60-ABCG2 cells; assay: XTT proliferation / drug combination assay, HL60-ABCG2; assay type: cell-based, human; settings: Homo sapiens, cytostatic alone or with 10 µM ensartinib, 48 h
Experimental: (§3) The MTT method is not readily adapted for use with suspension cell cultures, therefore the XTT assay was used to assess the proliferation of HL60 cells. Briefly, HL60-par, HL60-ABCB1, HL60-ABCG2, and HL60-ABCC1 cells were seeded at 2 × 10^4 cells/well in 96-well culture plates. Immediately after seeding, dilutions of the tested drugs or drug combinations were added to the cells. The plates were then incubated under standard conditions (37 °C, 5% CO2) for 48 h, after which XTT solution in PBS (1 mg/mL) and phenazine methosulfate (7.50 µg/mL) were added to the cells and the plates were incubated for another 5 h. Finally, the cells’ absorbance was measured at 450 nm using a microplate reader (Infinite M200, Tecan, Salzburg, Austria). This method was used to assess the effect of ABC transporters on sensitivity to ensartinib and in drug combination assays.
(§4) Experiments focusing on the modulation of ABC transporter-mediated resistance were performed as described previously. The parent MDCKII and HL60 cells and their ABCB1-, ABCG2-, and ABCC1-overexpressing counterparts were seeded at the densities specified above onto 96-well culture plates and cultured for 24 h. The medium was subsequently replaced with serial dilutions of ensartinib alone or with various concentrations of a model MDR-susceptible cytostatic agent (daunorubicin or mitoxantrone) with or without 10 µM ensartinib. After 48 h incubation, the cells’ viability was determined as described above. In addition to performing IC50-shift analyses, the viability measurements were converted to FA (fraction of cells affected) values and the effects of drug combinations were quantified using the Chou-Talalay combination index (CI) method as implemented in CompuSyn 3.0.1 (ComboSyn Inc., Paramus, NJ, USA). The effects of concomitantly administered drugs were classified as synergistic (CI < 0.9), additive (0.9 < CI < 1.1), or antagonistic (CI > 1.1) based on the computed CI values.

[4] = test system: MDCKII-parent cells; assay: MTT proliferation / drug combination assay, MDCKII-parent; assay type: cell-based, canine; settings: Canis lupus familiaris, 48 h
Experimental: as §1

[5] = test system: HL60-parent cells; assay: XTT proliferation / drug combination assay, HL60-parent; assay type: cell-based, human; settings: Homo sapiens, 48 h
Experimental: The parent MDCKII and HL60 cells and their ABCB1-, ABCG2-, and ABCC1-overexpressing counterparts were seeded at the densities specified above onto 96-well culture plates and cultured for 24 h. The medium was subsequently replaced with serial dilutions of ensartinib alone or with various concentrations of a model MDR-susceptible cytostatic agent (daunorubicin or mitoxantrone) with or without 10 µM ensartinib. After 48 h incubation, the cells’ viability was determined as described above. In addition to performing IC50-shift analyses, the viability measurements were converted to FA (fraction of cells affected) values and the effects of drug combinations were quantified using the Chou-Talalay combination index (CI) method as implemented in CompuSyn 3.0.1 (ComboSyn Inc., Paramus, NJ, USA). The effects of concomitantly administered drugs were classified as synergistic (CI < 0.9), additive (0.9 < CI < 1.1), or antagonistic (CI > 1.1) based on the computed CI values [57].

[6] = test system: MDCKII-ABCG2 cells; assay: MTT proliferation / drug combination assay, MDCKII-ABCG2; assay type: cell-based, canine; settings: Canis lupus familiaris, cytostatic alone or with 10 µM ensartinib, 48 h
Experimental: as §1

[7] = test system: HL60-ABCB1 cells; assay: XTT proliferation / drug combination assay, HL60-ABCB1; settings: Homo sapiens, 48 h
Experimental: as §3, §4

[8] = test system: MDCKII-ABCB1 cells; assay: MTT proliferation / drug combination assay, MDCKII-ABCB1; settings: Canis lupus familiaris, 48 h
Experimental: MTT proliferation assay was performed as described previously. Cells were seeded on a 96-well culture plate at densities (in units of cells/well) of 1.3 × 10^4 for MDCKII-par, MDCKII-ABCB1, MDCKII-ABCG2, and MDCKII-ABCC1; 1.2 × 10^4 for A431-par, A431-ABCB1, A431-ABCG2 and A431-ABCC1; 1.2 × 10^4 for NCI-H1299; 2.0 × 10^4 for Caco-2; 5.0 × 10^4 for LS174T; and 6.0 × 10^4 for HepG2-CYP3A4 and HepG2-EV. After seeding, the cells were cultured for 24 h, then the media was removed and the cells were treated with serial dilutions of a drug or drug combination for 48 h. Vehicles containing media and 40% DMSO in media served as 100% and 0% viability controls, respectively. Upon completion of the 48 h period, the cells were washed once with 1× PBS, the media was replaced with an MTT solution in Opti-MEM (1 mg/mL), and the cells were incubated under standard conditions for 60 min. MTT solution was carefully removed and the resulting formazan crystals were immediately solubilized in DMSO. The cells were then shaken gently for 10 min, after which absorbance of their lysate was measured at 570 nm and 690 nm using a microplate reader (Infinite M200, Tecan, Salzburg, Austria); background values obtained at 690 nm were subtracted from the measurements obtained at 570 nm. This method was used to assess the effect of ABC transporters on sensitivity to ensartinib, in drug combination assays, and to identify drug concentrations appropriate for use in induction studies.
as §4

Compound: CC(=O)N1CCN(c2ccc(OCC3COC(Cn4ccnc4)(c4ccc(Cl)cc4Cl)O3)cc2)CC1 (centres unmarked) [ketoconazole]
- sensitization effect of combination with docetaxel ([1]; HepG2-CYP3A4, <0% antagonism, =0% additivity, >0% synergism): synergistic
- sensitization effect of combination with docetaxel [2]: antagonistic

Compound: CC(=O)O[C@@]12CO[C@@H]1C[C@H](O)[C@@]1(C)C(=O)[C@H](O)C3=C(C)[C@@H](OC(=O)[C@H](O)[C@@H](NC(=O)OC(C)(C)C)c4ccccc4)C[C@@](O)([C@@H](OC(=O)c4ccccc4)[C@H]21)C3(C)C [docetaxel]
- viability at 1 µM ([1]; Homo sapiens, 48 h, HepG2-CYP3A4 vs HepG2-EV, read-out: viability of CYP3A4-overexpressing cells greater than that of empty vector cells): 24.4%

Compound: O=C1c2c(O)ccc(O)c2C(=O)c2c(NCCNCCO)ccc(NCCNCCO)c21 [mitoxantrone]
- IC50 [3]: 0.666 µM
- IC50 ([4]; MDCKII-parent, cytostatic alone or with 10 µM ensartinib, read-out: IC50): 1.59 µM
- IC50 ([5]; HL60-parent, cytostatic alone or with 10 µM ensartinib, read-out: IC50): 0.0305 µM
- IC50 [6]: 9.98 µM

Compound: COc1cccc2c1C(=O)c1c(O)c3c(c(O)c1C2=O)C[C@@](O)(C(C)=O)C[C@@H]3O[C@H]1C[C@H](N)[C@H](O)[C@H](C)O1 [daunorubicin]
- IC50 [7]: 2.39 µM
- IC50 [8]: 11.9 µM
- IC50 [4]: 0.947 µM
- IC50 [5]: 0.0531 µM
